Measurements from BindingDB's records for patent US11161844 (PFIZER INC., 2021).

What was measured:
[1] = molecular target: Leucine-rich repeat serine/threonine-protein kinase 2 (Homo sapiens, UniProt Q5S007); assay: LRRK2 Assay
Procedure: (§1) LRRK2 kinase activity was measured using Lantha Screen technology from Invitrogen. GST-tagged truncated LRRK2 from Invitrogen (Cat #PV4874) was incubated with a fluorescein-labeled peptide substrate based upon ezrin/radixin/moesin (ERM), also known as LRRKtide (Invitrogen cat #PR8976A), in the presence of a dose response of compound. Upon completion, the assay was stopped and detected with a terbium labeled anti-phospho-ERM antibody (Invitrogen, cat #PR8975A). The assay was carried out under the following protocol: The compound dose response was prepared by diluting compound to a top concentration of 0.3 mM in 100% DMSO and serial diluted by half-log in DMSO to give an 11 point curve, 100× final assay concentration. Using Echo acoustic dispensing, 60 nL of compound was transferred to a low volume Corning 384-well assay plate. 3 μL of a working solution of substrate (200 nM LRRKtide, 2 mM ATP) prepared in assay buffer (50 mM HEPES, pH 7.5, 3 mM MgCl2, with 2 mM DTT and 0.01% Brij35 added fresh) was added to the 60 nL compound assay plate. The kinase reaction was started with 3 μL of a working solution of LRRK2 enzyme at a concentration of 4 μg/mL. The final reaction concentrations were 100 nM LRRKtide, 1 mM ATP, 2 μg/mL LRRK2 enzyme and a compound dose response with a top dose of 3 μM. The reaction was allowed to progress at room temperature for 30 minutes and then stopped with the addition of 6 μL of detection buffer (20 mM Tris pH 7.6, 0.01% NP-40, 6 mM EDTA with 2 nM terbium labeled anti-phospho-ERM). After an incubation of 1 hour at room temperature, the plate was read on an Envision with an excitation wavelength of 340 nm and a reading emission at both 520 nm and 495 nm. The ratio of the 520 nm and 495 nm emission was used to analyze the data. Inhibition of mutant G2019S LRRK2 (Invitrogen cat #PV4881) was measured in the exact same method. All final concentrations of substrate ATP and enzyme were the same.

[2] = molecular target: Leucine-rich repeat serine/threonine-protein kinase 2 [G2019S] (Homo sapiens, UniProt Q5S007, G2019S); assay: LRRK2 Assay
Procedure: as §1

Chain of Leucine-rich repeat serine/threonine-protein kinase 2 (Q5S007 whole entry, the tested form may be a part): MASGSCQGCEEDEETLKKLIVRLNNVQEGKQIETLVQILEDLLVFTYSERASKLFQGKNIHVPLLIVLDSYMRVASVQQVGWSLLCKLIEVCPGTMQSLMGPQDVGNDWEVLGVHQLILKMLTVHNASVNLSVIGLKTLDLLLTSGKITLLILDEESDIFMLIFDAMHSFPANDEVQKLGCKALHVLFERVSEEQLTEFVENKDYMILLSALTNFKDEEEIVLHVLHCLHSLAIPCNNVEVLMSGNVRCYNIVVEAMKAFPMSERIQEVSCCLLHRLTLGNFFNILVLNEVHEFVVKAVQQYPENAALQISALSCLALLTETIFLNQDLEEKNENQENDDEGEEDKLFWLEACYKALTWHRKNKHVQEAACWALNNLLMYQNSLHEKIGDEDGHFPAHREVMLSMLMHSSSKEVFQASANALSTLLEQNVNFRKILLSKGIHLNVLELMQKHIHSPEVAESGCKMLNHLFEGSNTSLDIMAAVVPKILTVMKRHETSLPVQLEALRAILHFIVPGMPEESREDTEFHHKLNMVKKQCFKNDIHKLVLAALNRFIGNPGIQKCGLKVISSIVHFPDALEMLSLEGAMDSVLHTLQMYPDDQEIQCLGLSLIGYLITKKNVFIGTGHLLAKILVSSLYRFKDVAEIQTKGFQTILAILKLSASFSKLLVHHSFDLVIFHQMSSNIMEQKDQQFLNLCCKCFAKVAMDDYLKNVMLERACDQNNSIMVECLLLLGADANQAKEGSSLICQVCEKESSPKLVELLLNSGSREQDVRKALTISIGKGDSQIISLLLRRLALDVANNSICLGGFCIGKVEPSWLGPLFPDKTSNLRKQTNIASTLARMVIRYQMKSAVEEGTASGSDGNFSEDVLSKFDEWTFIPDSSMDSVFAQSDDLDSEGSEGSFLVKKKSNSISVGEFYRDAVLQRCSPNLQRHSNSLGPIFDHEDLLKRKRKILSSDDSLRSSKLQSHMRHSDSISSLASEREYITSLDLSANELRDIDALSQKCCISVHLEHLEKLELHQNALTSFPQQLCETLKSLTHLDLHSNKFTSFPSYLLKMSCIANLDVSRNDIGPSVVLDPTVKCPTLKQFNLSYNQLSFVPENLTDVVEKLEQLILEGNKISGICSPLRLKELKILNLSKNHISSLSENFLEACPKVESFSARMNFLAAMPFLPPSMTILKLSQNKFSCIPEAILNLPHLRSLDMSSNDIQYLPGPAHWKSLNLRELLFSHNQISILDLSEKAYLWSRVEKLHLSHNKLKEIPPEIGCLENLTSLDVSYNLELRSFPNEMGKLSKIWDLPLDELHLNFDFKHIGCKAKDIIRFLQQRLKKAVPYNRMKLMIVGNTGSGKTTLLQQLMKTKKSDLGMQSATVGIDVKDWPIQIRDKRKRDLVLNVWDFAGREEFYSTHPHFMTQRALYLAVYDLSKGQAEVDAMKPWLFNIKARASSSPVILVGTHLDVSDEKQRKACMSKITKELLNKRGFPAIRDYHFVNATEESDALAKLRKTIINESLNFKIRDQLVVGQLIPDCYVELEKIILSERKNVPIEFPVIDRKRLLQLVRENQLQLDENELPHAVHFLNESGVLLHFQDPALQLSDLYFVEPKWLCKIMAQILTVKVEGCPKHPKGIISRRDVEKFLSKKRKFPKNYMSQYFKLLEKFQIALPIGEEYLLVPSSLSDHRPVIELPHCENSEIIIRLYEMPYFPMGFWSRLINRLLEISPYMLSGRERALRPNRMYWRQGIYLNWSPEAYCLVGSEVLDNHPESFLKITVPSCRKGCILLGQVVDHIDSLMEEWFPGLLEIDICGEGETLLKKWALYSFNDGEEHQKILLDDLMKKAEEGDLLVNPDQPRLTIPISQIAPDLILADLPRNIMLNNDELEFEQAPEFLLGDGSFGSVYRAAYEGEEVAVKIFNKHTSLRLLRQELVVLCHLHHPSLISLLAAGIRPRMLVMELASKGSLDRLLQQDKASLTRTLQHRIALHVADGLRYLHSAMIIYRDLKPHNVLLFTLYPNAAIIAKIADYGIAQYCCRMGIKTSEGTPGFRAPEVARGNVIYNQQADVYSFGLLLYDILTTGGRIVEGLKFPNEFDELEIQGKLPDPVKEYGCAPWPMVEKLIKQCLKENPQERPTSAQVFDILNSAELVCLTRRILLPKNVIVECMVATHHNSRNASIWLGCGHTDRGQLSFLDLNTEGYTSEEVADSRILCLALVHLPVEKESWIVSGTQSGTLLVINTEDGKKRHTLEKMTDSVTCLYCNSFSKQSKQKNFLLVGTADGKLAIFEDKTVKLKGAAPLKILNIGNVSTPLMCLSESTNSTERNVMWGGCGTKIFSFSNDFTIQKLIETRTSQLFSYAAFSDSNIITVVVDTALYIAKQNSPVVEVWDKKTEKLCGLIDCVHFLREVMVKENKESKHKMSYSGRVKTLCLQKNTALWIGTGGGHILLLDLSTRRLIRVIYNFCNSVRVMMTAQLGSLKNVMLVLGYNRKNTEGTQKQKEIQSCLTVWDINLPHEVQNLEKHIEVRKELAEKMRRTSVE
Chain of Leucine-rich repeat serine/threonine-protein kinase 2 [G2019S] (Q5S007 whole entry G2019S): as the sequence (Q5S007 whole entry, the tested form may be a part) above, with G2019S counted along it

Row | IC50 [1] | IC50 [2] | SMILES
1 | 5.68 nM | – | C[C@@H]1C[C@H](n2c(C3CCC(F)C3)nc3cnc4ccc(F)cc4c32)CCO1 (single isomer, unassigned) [US11161844, Example 37]
2 | 22 nM | 15.8 nM | C[C@@H]1CC(n2c(C3CC(C)(F)C3)nc3cnc4ccc(F)cc4c32)CCO1 (stereo partly drawn) [US11161844, Example 31]
